From BigSolDB 2.1

## CC1(C)COP(=O)(C(C)(O)c2ccccc2)OC1 (configuration not stated)
In 1,2-dichloroethane, 278.35 K
  solubility (mole fraction): 0.00107
In 1,2-dichloroethane, 283.25 K
  solubility (mole fraction): 0.00117
In 1,2-dichloroethane, 288.45 K
  solubility (mole fraction): 0.00154
In 1,2-dichloroethane, 293.35 K
  solubility (mole fraction): 0.00171
In 1,2-dichloroethane, 298.25 K
  solubility (mole fraction): 0.00218
In 1,2-dichloroethane, 303.15 K
  solubility (mole fraction): 0.00258
In 1,2-dichloroethane, 308.25 K
  solubility (mole fraction): 0.00291
In 1,2-dichloroethane, 313.15 K
  solubility (mole fraction): 0.00359
In 1,2-dichloroethane, 318.05 K
  solubility (mole fraction): 0.00454
In 1,2-dichloroethane, 322.95 K
  solubility (mole fraction): 0.00542
In 1,2-dichloroethane, 328.15 K
  solubility (mole fraction): 0.00651
In 1,2-dichloroethane, 333.25 K
  solubility (mole fraction): 0.00803
In 1,2-dichloroethane, 338.15 K
  solubility (mole fraction): 0.00933
In acetone, 278.15 K
  solubility (mole fraction): 0.00106
In acetone, 283.25 K
  solubility (mole fraction): 0.00132
In acetone, 288.45 K
  solubility (mole fraction): 0.0018
In acetone, 293.25 K
  solubility (mole fraction): 0.0023
In acetone, 298.35 K
  solubility (mole fraction): 0.0031
In acetone, 303.35 K
  solubility (mole fraction): 0.00363
In acetone, 308.15 K
  solubility (mole fraction): 0.00469
In acetone, 313.25 K
  solubility (mole fraction): 0.00547
In acetone, 318.05 K
  solubility (mole fraction): 0.00593
In acetone, 323.15 K
  solubility (mole fraction): 0.00616
In acetonitrile, 283.25 K
  solubility (mole fraction): 0.00144
In acetonitrile, 288.45 K
  solubility (mole fraction): 0.00169
In acetonitrile, 293.35 K
  solubility (mole fraction): 0.00198
In acetonitrile, 298.25 K
  solubility (mole fraction): 0.00221
In acetonitrile, 303.25 K
  solubility (mole fraction): 0.00268
In acetonitrile, 308.15 K
  solubility (mole fraction): 0.00342
In acetonitrile, 313.35 K
  solubility (mole fraction): 0.00392
In acetonitrile, 318.15 K
  solubility (mole fraction): 0.0046
In acetonitrile, 323.05 K
  solubility (mole fraction): 0.00562
In acetonitrile, 327.95 K
  solubility (mole fraction): 0.00654
In acetonitrile, 333.05 K
  solubility (mole fraction): 0.00866
In chloroform, 278.25 K
  solubility (mole fraction): 0.0048
In chloroform, 283.35 K
  solubility (mole fraction): 0.00547
In chloroform, 288.15 K
  solubility (mole fraction): 0.00651
In chloroform, 293.05 K
  solubility (mole fraction): 0.00768
In chloroform, 298.45 K
  solubility (mole fraction): 0.00866
In chloroform, 303.35 K
  solubility (mole fraction): 0.00944
In chloroform, 308.15 K
  solubility (mole fraction): 0.0111
In chloroform, 313.05 K
  solubility (mole fraction): 0.0128
In chloroform, 317.95 K
  solubility (mole fraction): 0.0154
In chloroform, 323.15 K
  solubility (mole fraction): 0.0188
In ethanol, 278.45 K
  solubility (mole fraction): 0.00558
In ethanol, 283.25 K
  solubility (mole fraction): 0.00618
In ethanol, 288.15 K
  solubility (mole fraction): 0.0068
In ethanol, 293.25 K
  solubility (mole fraction): 0.00786
In ethanol, 298.35 K
  solubility (mole fraction): 0.00933
In ethanol, 303.05 K
  solubility (mole fraction): 0.0106
In ethanol, 307.95 K
  solubility (mole fraction): 0.0125
In ethanol, 313.05 K
  solubility (mole fraction): 0.014
In ethanol, 318.15 K
  solubility (mole fraction): 0.0169
In ethanol, 323.05 K
  solubility (mole fraction): 0.0195
In ethanol, 327.95 K
  solubility (mole fraction): 0.0239
In ethanol, 333.15 K
  solubility (mole fraction): 0.0293
In ethanol, 338.05 K
  solubility (mole fraction): 0.0327
In ethanol, 343.15 K
  solubility (mole fraction): 0.0374
In ethyl acetate, 297.95 K
  solubility (mole fraction): 0.00054
In ethyl acetate, 303.35 K
  solubility (mole fraction): 0.00092
In ethyl acetate, 308.45 K
  solubility (mole fraction): 0.00131
In ethyl acetate, 313.15 K
  solubility (mole fraction): 0.00166
In ethyl acetate, 318.05 K
  solubility (mole fraction): 0.00221
In ethyl acetate, 323.05 K
  solubility (mole fraction): 0.0024
In ethyl acetate, 328.35 K
  solubility (mole fraction): 0.00283
In ethyl acetate, 333.25 K
  solubility (mole fraction): 0.00307
In ethyl acetate, 338.15 K
  solubility (mole fraction): 0.00336
In ethyl acetate, 342.95 K
  solubility (mole fraction): 0.0036
In methanol, 283.35 K
  solubility (mole fraction): 0.0112
In methanol, 288.15 K
  solubility (mole fraction): 0.0132
In methanol, 293.25 K
  solubility (mole fraction): 0.0146
In methanol, 298.31 K
  solubility (mole fraction): 0.0168
In methanol, 303.15 K
  solubility (mole fraction): 0.0196
In methanol, 307.95 K
  solubility (mole fraction): 0.0223
In methanol, 313.05 K
  solubility (mole fraction): 0.0259
In methanol, 317.95 K
  solubility (mole fraction): 0.0285
In methanol, 323.15 K
  solubility (mole fraction): 0.0321
